Where “and” joins values, the source holds several entries; their conditions need not be identical. Identical values can stand only once.

Consider nine molecules from paper PMC11988671, “SIRT7 Is a Lysine Deacylase with a Preference for Depropionylation and Demyristoylation” (International Journal of Molecular Sciences, 2025).

The subject of one experiment is HEK293T cells. In words: NAD^+ assay in cells treated with FK866. It is filed as cell-based. As for the experimental part: HEK293T and Hepa1–6 cells were treated with the NAMPT inhibitor FK866 (500 pM and 8 nM, respectively), and NAD^+ and total NAD^+/NADH cellular levels were determined using an NAD^+/NADH Assay Kit-WST (#N509; Dojindo Laboratories, Kumamoto, Japan). Total NAD^+/NADH and NADH concentrations in one sample were calculated from the calibration curve, then the NAD^+ level was determined by subtracting the NADH value from the total NAD^+/NADH level.

For experiment [1], the system named is Cd36 and Cidec expression in Hepa1–6 cells. In words: Cellular gene expression (real-time quantitative PCR). It is filed as cell-based. The settings on record: FK866 8 nM, 48 h. As for the experimental part:
Hepa1–6 cells were exposed to 8 nM FK866 for 48 h, and the cells were incubated without fetal bovine serum for the final 24 h of treatment. Subsequently, total RNA was extracted from the cells utilizing the Sepasol RNA I Super Reagent (Nacalai Tesque). Quantitative reverse transcription (RT)-PCR was conducted using a PrimeScript RT Reagent Kit (RR047A; TaKaRa Bio, Inc., Kusatsu, Japan) followed by TB Green Premix Ex TaqII (RR820A; TaKaRa Bio, Inc.) and an ABI ViiA 7 Real-Time PCR System (Applied Biosystems, Inc., Foster City, CA, USA). The relative expression level of each gene was normalized to that of TATA box-binding protein (Tbp). The following primer sequences were used: Cd36, forward 5′-TTGGCCAAGCTATTGCGACA-3′ and reverse 5′-CTGGAGGGGTGATGCAAAGG-3′; Cidec, forward 5′-GCTGAAGGGGCAGAAGTGGA-3′ and reverse 5′-GCGCTTGGCCTTGTAGCAGT-3′; and Tbp, forward 5′-CCCCTTGTACCCTTCACCAAT-3′ and reverse 5′-GAAGCTGCGGTACAATTCCAG-3′.

The subject of experiment [2] is SIRT1-dependent PPARα deacetylation in HEK293T cells. The experiment can be described thus: SIRT1-dependent PPARα deacetylation (IP and Western blot). Format: cell-based. The settings on record: FK866 500 pM. As for the experimental part: (§1) HEK293T cells were treated with FK866 or DMSO for 24 h and transfected with the indicated plasmids using JetPRIME reagents (Polypus, Illkirch-Graffenstaden, France) for an additional 24 h. The cells were lysed in IP buffer (20 mM Tris-HCl pH 7.4, 200 mM NaCl, 2.5 mM MgCl2, 0.05% NP-40, 1 mM PMSF, and protease inhibitor cocktail (Nacalai Tesque)) supplemented with 5 mM NAM and 2.5 µM trichostatin A. The lysate was incubated on ice for 20 min and subsequently sonicated twice at 4 °C with a 20 s interval at 26% amplitude using a Sonifier SFX-150 (Branson Ultrasonics) to disrupt the cells. Following sonication, the lysate was centrifuged at 14,000× g for 15 min at 4 °C to separate cellular debris. For immunoprecipitation, 2 mg protein from each sample was incubated with anti-HA- or anti-DYKDDDDK (FLAG)-tagged beads (Fujifilm Wako Pure Chemical Corp.) for 18 h at 4 °C with gentle rotation. After washing with IP buffer, the proteins were eluted in SDS sample buffer, and lysine acetylation was detected by Western blot with an anti-acetylated lysine antibody.
(§2) For Western blot, proteins were separated by SDS-PAGE and transferred to an Immobilon-P PVDF membrane (Merck Millipore, Burlington, MA, USA), which was probed with primary and secondary antibodies. […]
On the technique in general: In western blotting, separated proteins are transferred to a membrane and probed.

For experiment [3], the system named is SIRT7-dependent DDB1 deacetylation in HEK293T cells. In words: SIRT7-dependent DDB1 deacetylation (IP and Western blot). It is filed as cell-based. The settings on record: FK866 500 pM. As for the experimental part:
as §1, §2

The test system of a further experiment is SIRT7-DNA and SIRT7-RNA. Further details: method as in PMID 35939806. The note with it: compared with own H3K18Ac value in presence of RNA; read-out: Km, NAD^+ for SIRT7, previously reported value; cited from earlier work.
Experiment [4] concerns SIRT1. The note with it: compared with own H3K9Ac value; read-out: Km, NAD^+ for SIRT1, value reported previously; cited from earlier work.
The next experiment relates to SIRT5. Further details: method as in PMID 23028781. The settings on record: read-out: Km of SIRT5 for NAD^+; cited from earlier work.
The test system of the next experiment is SIRT4. Further details: method as in PMID 23746352. The settings on record: read-out: Km of SIRT4 for NAD^+; cited from earlier work.
The target of experiment [5] is T1, SIRT7 (Mus musculus, UniProt Q8BKJ9).
T1 sequence (Q8BKJ9 1-402): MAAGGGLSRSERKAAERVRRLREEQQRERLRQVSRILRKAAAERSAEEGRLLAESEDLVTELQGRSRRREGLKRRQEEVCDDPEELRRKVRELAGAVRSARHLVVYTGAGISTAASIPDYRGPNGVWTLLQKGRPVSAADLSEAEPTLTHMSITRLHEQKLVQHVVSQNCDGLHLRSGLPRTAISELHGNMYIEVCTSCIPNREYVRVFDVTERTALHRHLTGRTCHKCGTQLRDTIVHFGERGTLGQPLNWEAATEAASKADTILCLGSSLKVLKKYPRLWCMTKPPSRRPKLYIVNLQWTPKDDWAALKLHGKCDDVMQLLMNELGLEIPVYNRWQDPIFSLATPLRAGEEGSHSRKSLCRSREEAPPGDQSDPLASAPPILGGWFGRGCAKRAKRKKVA
In words: NAM inhibition assay (in vitro deacylation, LC-MS/MS). The settings on record: for IC50: IC50, NAM (relative IC50), wild-type SIRT7.

The target in experiment [6] is T2, SIRT1 (Mus musculus, UniProt Q923E4).
T2 construct: HaloTag (N, cleaved yes); made in house; host or cells: E. coli K12 KRX
T2 sequence (Q923E4 1-737): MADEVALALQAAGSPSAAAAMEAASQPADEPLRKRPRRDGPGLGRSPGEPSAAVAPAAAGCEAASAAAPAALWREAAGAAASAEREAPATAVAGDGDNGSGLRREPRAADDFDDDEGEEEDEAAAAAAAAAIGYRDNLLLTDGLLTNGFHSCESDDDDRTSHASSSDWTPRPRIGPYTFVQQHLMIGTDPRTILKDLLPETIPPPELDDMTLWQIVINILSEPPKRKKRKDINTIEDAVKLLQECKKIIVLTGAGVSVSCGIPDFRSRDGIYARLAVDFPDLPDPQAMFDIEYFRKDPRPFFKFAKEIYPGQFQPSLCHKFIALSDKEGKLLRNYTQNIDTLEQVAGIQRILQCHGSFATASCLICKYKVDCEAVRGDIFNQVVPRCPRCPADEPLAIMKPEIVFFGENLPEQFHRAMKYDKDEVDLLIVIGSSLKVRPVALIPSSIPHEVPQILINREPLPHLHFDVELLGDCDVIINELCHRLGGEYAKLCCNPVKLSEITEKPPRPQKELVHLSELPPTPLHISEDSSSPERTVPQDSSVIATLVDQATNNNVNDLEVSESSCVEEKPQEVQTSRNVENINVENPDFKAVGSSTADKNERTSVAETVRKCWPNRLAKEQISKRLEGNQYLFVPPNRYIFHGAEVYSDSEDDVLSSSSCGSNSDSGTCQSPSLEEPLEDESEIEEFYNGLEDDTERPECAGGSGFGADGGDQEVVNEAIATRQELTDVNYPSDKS
In words: In vitro deacetylation assay of H3K9Ac peptide by SIRT1 (LC-MS/MS). It is filed as biochemical. The settings on record: 8 µM peptide, 1.0 mM NAD^+, 2 h, 37 °C. The procedure: (§3) In the case of the SIRT1 enzymatic reaction, 8 µM peptide was incubated in 50 µL reaction buffer containing 10 mM NaCl, 10 mM KCl, 20 mM Tris-HCl pH 8.0, 1.0 mM NAD^+, and 1 mM DTT, with or without 1 µg recombinant SIRT1. The reaction mixtures were incubated for 24 h for SIRT7 or 2 h for SIRT1 at 37 °C.
(§4) The general conditions for electrospray ionization-MS were as follows: nebulizer gas, N2, delivered at 50 psi; nebulizer gas temperature, 250 °C; capillary voltage, 3500 V; and collision gas, G1 grade N2 (Taiyo Nippon Sanso Corporation, Tokyo, Japan).

Experiment [7] deals with T1, SIRT7. The experiment can be described thus: In vitro deacylation assay of acyl-modified H3K18 peptides by SIRT7 (LC-MS/MS). It is filed as biochemical. Further details: HaloTag (N, cleaved yes); made in house; host or cells: E. coli K12 KRX. The settings on record: 8 μM peptide (glutaryl 100 µM), 1.0 mM NAD^+, RNA, 24 h, 37 °C. As for the experimental part:
as §3, §4

[8] abbreviates: succinyl H3K18 peptide substrate.

`O=C(/C=C/c1cccnc1)NCCCCC1CCN(C(=O)c2ccccc2)CC1` [FK866]: the “Cellular NAD^+ levels” value with HEK293T cells is listed as “decreased”. Further, in experiment [1], the Cd36 expression result is reported as “significantly decreased” and the Cidec expression result was “significantly decreased”. Moreover, the “Deacetylation of PPARα by SIRT1” value in experiment [2] is “not abolished”. The “SIRT7-mediated DDB1 deacetylation” value in [3] is recorded as “abolished”.
Turning to `NC(=O)c1ccc[n+]([C@@H]2O[C@H](COP(=O)([O-])OP(=O)(O)OC[C@H]3O[C@@H](n4cnc5c(N)ncnc54)[C@H](O)[C@@H]3O)[C@@H](O)[C@H]2O)c1` [NAD^+, Nicotinamide adenine dinucleotide], the Km (as a rule, the substrate concentration at which the rate is half of its maximum) in the experiment with SIRT7-DNA and SIRT7-RNA was 480 µM; with SIRT1 [4], 29 µM; in the experiment with SIRT5, 980 µM; in the experiment with SIRT4, 35 µM.
For the molecule `NC(=O)c1cccnc1` [NAM, Nicotinamide], the IC50 (commonly the midpoint of a concentration-inhibition curve) against SIRT7 [5] (acetyl H3K18 peptide substrate) is 23 µM and 23.2 µM; against SIRT7 [5] (butyryl H3K18 peptide substrate), 613 ± 63.8 µM; against SIRT7 [5] (myristoyl H3K18 peptide substrate), 286 ± 25.1 µM; against SIRT7 [5] (octanoyl H3K18 peptide substrate), 1110 ± 216 µM; on SIRT7 [5] (palmitoyl H3K18 peptide substrate), 544 ± 83.7 µM; against SIRT7 [5] (propionyl H3K18 peptide substrate), 787 ± 118 µM. The concentration for half-maximal inhibition (IC50) against SIRT7 [5] (setting [8]) came to 1230 ± 268 µM. Besides, at SIRT7 [5] (setting [8]), the “NAM inhibition of the desuccinylation reaction” value is “did not completely inhibit”.
With “NH2-ARTKQTARK^AcetylSTGGKAPRKQLC-COOH [H3K9Ac]”, the “Loss of H3K9Ac peptide and formation of deacetylated H3K9 peptide with recombinant SIRT1” value on SIRT1 [6] was “detected”.
Turning to “NH2-KSTGGKAPRK^ButyrylQLATKAARKS-COOH [butyryl H3K18 peptide]”, the “Hydrolysis of acyl H3K18 peptide by SIRT7” value (from here on “Hydrolysis”) on SIRT7 [7] is recorded as “catalyzed the hydrolysis”.
In the case of “NH2-KSTGGKAPRK^GlutarylQLATKAARKS-COOH [glutaryl peptide]”, the “Hydrolysis” value at SIRT7 [7] is “not detected”.
In the case of “NH2-KSTGGKAPRK^MyristoylQLATKAARKS-COOH [myristoyl H3K18 peptide]”, the “Hydrolysis” value on SIRT7 [7] is on record as “catalyzed the hydrolysis”.
As to “NH2-KSTGGKAPRK^OctanoylQLATKAARKS-COOH [octanoyl H3K18 peptide]”, the “Hydrolysis” value on SIRT7 [7] is reported as “catalyzed the hydrolysis”.
The same measure, in the same setting: in the case of “NH2-KSTGGKAPRK^SuccinylQLATKAARKS-COOH [succinyl H3K18 peptide]” it was “catalyzed the hydrolysis”.
